Patent publication US20150111815A1, “NOVEL CYCLOSPORIN DERIVATIVES FOR THE TREATMENT AND PREVENTION OF VIRAL INFECTIONS” (S&T Global Inc., priority 2011, published 2015)
*1 amine or outer side, *2 acyl side, *3 side chain or, on linkers, in order; H or OH if unused. Where a SMILES comes first, the peptide text is derived from it. [ ]: non-standard residue; d: D form. ξ: configuration not given here. MeBmt = C/C=C/C[C@@H](C)[C@@H](O)[C@H](NC)C(=O)O; X2 = C=CCOC(C)(C)C[C@@H](C(=O)[*:2])N(C)[*:1]; dNMeDab(Me2) = CN[C@H](CCN(C)C)C(=O)O; NMeIle(3ξ) = CCC(C)[C@H](NC)C(=O)O; NMeL = CN[C@@H](CC(C)C)C(=O)O; NMeV = CN[C@H](C(=O)O)C(C)C; Abu = CC[C@H](N)C(=O)O

test system: HCV replicon in cell line ET (luc-ubi-neo/ET), Huh7 human hepatoma cells; assay: HCV subgenomic replicon assay (luciferase end point); format: cell-based; conditions: Hepatitis C virus, Huh-7, read-out: Antiviral activity: IC50 (μM)
Experimental: The anti-HCV activity of cyclosporine derivatives were evaluated in the HCV subgenomic replicon assay. The assay use the cell line ET (luc-ubi-neo/ET), which is a Huh7 human hepatoma cell line harboring an HCV replicon with a stable luciferase (Luc) reporter. HCV RNA replication was assessed by quantifying HCV replicon-derived luciferase activity. The antiviral activity of cyclosporine analogs were evaluated after drug treatment, the EC 50 and EC 90 were determined in subsequent assessments by using the luciferase end point (Krieger, N., et al., 2001, J. Virol. 75, 4614-4624; Pietschmann, T., et al., 2002, J. Virol. 76, 4008-4021; each of which is incorporated herein by reference).

| SMILES | IC50 [µM] |
| --- | --- |
| C/C=C/C[C@@H](C)[C@@H](O)[C@H]1C(=O)N[C@@H](CC)C(=O)N(C)[C@H](CCN(C)C)C(=O)N(C)[C@@H](CC(C)(C)O)C(=O)N[C@@H](C(C)C)C(=O)N(C)[C@@H](CC(C)C)C(=O)N[C@@H](C)C(=O)N[C@H](C)C(=O)N(C)[C@@H](CC(C)C)C(=O)N(C)[C@@H](CC(C)C)C(=O)N(C)[C@@H](C(C)C)C(=O)N1C [Example 20, [(R)-2-(N,N-Dimethylamino)ethyl-Sar]-3-[(γ-hydroxy)-NMeLeu]-4-cyclosporin] | < 0.25 |
| C/C=C/C[C@@H](C)[C@@H](O)[C@H]1C(=O)N[C@@H](CC)C(=O)N(C)[C@H](CCN(C)C)C(=O)N(C)[C@@H](CC(C)(C)OC)C(=O)N[C@@H](C(C)C)C(=O)N(C)[C@@H](CC(C)C)C(=O)N[C@@H](C)C(=O)N[C@H](C)C(=O)N(C)[C@@H](CC(C)C)C(=O)N(C)[C@@H](CC(C)C)C(=O)N(C)[C@@H](C(C)C)C(=O)N1C [Example 21, [(R)-2-(N,N-Dimethylamino)ethyl-Sar]-3-[(γ-methoxy)-NMeLeu]-4-cyclosporin] | < 0.25 |
| C=CCOC(C)(C)C[C@H]1C(=O)N[C@@H](C(C)C)C(=O)N(C)[C@@H](CC(C)C)C(=O)N[C@@H](C)C(=O)N[C@H](C)C(=O)N(C)[C@@H](CC(C)C)C(=O)N(C)[C@@H](CC(C)C)C(=O)N(C)[C@@H](C(C)C)C(=O)N(C)[C@@H]([C@H](O)[C@H](C)C/C=C/C)C(=O)N[C@@H](CC)C(=O)N(C)[C@H](CCN(C)C)C(=O)N1C [Example 22, [(R)-2-(N,N-Dimethylamino)ethyl-Sar]-3-[(γ-allyloxy)-NMeLeu]-4-cyclosporin] (cyclo(A[dA][NMeL][NMeL][NMeV][MeBmt][Abu][dNMeDab(Me2)][X2]V[NMeL])) | < 0.25 |
| C/C=C/C[C@@H](C)[C@@H](O)[C@H]1C(=O)N[C@@H](CC)C(=O)N(C)[C@H](CCN(C)C)C(=O)N(C)[C@@H](C(C)CC)C(=O)N[C@@H](C(C)C)C(=O)N(C)[C@@H](CC(C)C)C(=O)N[C@@H](C)C(=O)N[C@H](C)C(=O)N(C)[C@@H](CC(C)C)C(=O)N(C)[C@@H](CC(C)C)C(=O)N(C)[C@@H](C(C)C)C(=O)N1C (stereo partly drawn) [Example 24, [(R)-2-(N,N-Dimethylamino)ethyl-Sar]-3-[NMeIle]-4-cyclosporin] (cyclo(A[dA][NMeL][NMeL][NMeV][MeBmt][Abu][dNMeDab(Me2)][NMeIle(3ξ)]V[NMeL])) | < 0.25 |
| C/C=C/C[C@@H](C)[C@@H](O)[C@H]1C(=O)N[C@@H](CC)C(=O)N(C)[C@H](CCN(CC)CC)C(=O)N(C)[C@@H](CC(C)C)C(=O)N[C@@H](C(C)C)C(=O)N(C)[C@@H](CC(C)C)C(=O)N[C@@H](C)C(=O)N[C@H](C)C(=O)N(C)[C@@H](CC(C)C)C(=O)N(C)[C@@H](CC(C)C)C(=O)N(C)[C@@H](C(C)C)C(=O)N1C [Example 25, [(R)-2-(N,N-Diethylamino)ethyl-Sar]-3-cyclosporin] | < 0.25 |
| C/C=C/C[C@@H](C)[C@@H](O)[C@H]1C(=O)N[C@@H](CC)C(=O)N(C)[C@H](CCN(CC)CC)C(=O)N(C)[C@@H](CC(C)(C)O)C(=O)N[C@@H](C(C)C)C(=O)N(C)[C@@H](CC(C)C)C(=O)N[C@@H](C)C(=O)N[C@H](C)C(=O)N(C)[C@@H](CC(C)C)C(=O)N(C)[C@@H](CC(C)C)C(=O)N(C)[C@@H](C(C)C)C(=O)N1C [Example 26, [(R)-2-(N,N-Diethylamino)ethyl-Sar]-3-[(γ-hydroxy)-NMeLeu]-4-cyclosporin] | < 0.25 |
| C/C=C/C[C@@H](C)[C@@H](O)[C@H]1C(=O)N[C@@H](CC)C(=O)N(C)[C@H](CCN(CC)CC)C(=O)N(C)[C@@H](CC(C)(C)OC)C(=O)N[C@@H](C(C)C)C(=O)N(C)[C@@H](CC(C)C)C(=O)N[C@@H](C)C(=O)N[C@H](C)C(=O)N(C)[C@@H](CC(C)C)C(=O)N(C)[C@@H](CC(C)C)C(=O)N(C)[C@@H](C(C)C)C(=O)N1C [Example 27, [(R)-2-(N,N-Diethylamino)ethyl-Sar]-3-[(γ-methoxy)-NMeLeu]-4-cyclosporin] | < 0.25 |
